Results: patent publication US20020169101A1, “Treatment of sexual dysfunction” (priority 1999, published 2002)
Entries after “also recorded” stand apart in the source; their conditions may differ.

How the values were obtained:
[1] = system: female rat sexual proceptivity; test: Female rat sexual proceptivity test (time investigating male vs female stimulus); type: in vivo
Procedure: Ovariectomised adult female Sprague Dawley rats (180-200 g, from Charles River) were housed in groups of 6 in a reversed lighting system of 12 h light:dark (lights off 7.00-19.00 h). Two weeks after ovariectomy they were used for sexual activity tests. The experiments started at least 5 h into the dark period.
Tests were carried out in a circular arena of 90 cm diameter, surrounded by a 30 cm high wall. Two small cages with wire-mesh front (15×15 cm) are fixed into the wall such that the front of the cage is <> with the wall and the 2 cages are opposite each other. They contained two stimuli animals: an intact sexually experienced male and a receptive female (ovariectomised, primed with 5 μg oestradiol benzoate dissolved in corn oil and injected subcutaneously 48 hours before the test and with 0.5 mg of progesterone four hours before the test). Sexually naive test and control animals were used. Forty eight hours before the tests, both the test and control animals were primed with 5 μg oestradiol benzoate. For animals used as positive controls, progesterone (0.5 mg/0.1 ml) was dissolved in corn oil and administered subcutaneously (s.c.), 4 h before the test. Test and control animals were introduced one at a time for 10 minute periods into the arena. During the 10 min test, the time that the test or positive control animal spent investigating each stimulus animal was noted. The arena was thoroughly cleaned between animals. The position of the male/female stimuli boxes was randomised between animals, in order to avoid place preference. The difference in the percentage of time spent investigating the male minus the female stimuli was calculated, out of the total time spent investigating stimuli animals.
Compound (1) was dissolved in 100% β-cyclodextrin and then diluted with saline to a final solution of 50% 2-hydroxypropyl-β-cyclodextrin. It was administered intraperitoneally (i.p.) at doses of 3 and 10 mg/kg, in a dosing volume of 1 ml/kg, 1 h before tests. Progesterone (0.5 mg/0.1 ml) was dissolved in corn oil and administered subcutaneously (s.c.), 4 h before test, as a positive control.
Ovariectomised adult female Sprague Dawley rats (180-200 g) were housed in groups of 5 in a reversed lighting system of 12 h light:dark (lights off 5.00-17.00 h). They were used for the experiments at least two weeks after ovariectomy. Forty eight hours before tests, the animals were primed with oestradiol benzoate (5 μg/[…] in corn oil, s.c.). On day 1, progesterone (0.5 mg/0.1 ml, in corn oil, s.c.) was administered to one of the groups 4 h before tests, as a positive control. Compound (1) (15 mg/kg, i.p.) was administered in 50% 2-hydroxypropyl-β-cyclodextrin, 1 h before tests. The test lasted 10 minutes and was carried out as described before. The difference in the percentage of time spent investigating the male minus the female stimuli was calculated, out of the total time spent investigating stimuli animals. Animals were submitted to a test on day 1 and on day 15. From day 2 to 14 the Compound (1) group received a daily injection of the compound (15 mg/kg, i.p.), while both the vehicle and the progesterone groups received an injection of vehicle. On day 15 the test took place again, as described for day 1.
Ovariectomised female rats (Sprague Dawley, obtained from Charles River, UK) were stereotaxically implanted (coordinates 0.89 mm behind Bregma, 1.3 mm lateral and 2.5 mm vertical) with stainless steel cannulae (6 mm long, O.D. 0.75 mm), held in place with dental cement. Animals were housed in groups of three and returned to a reversed lighting system of 12 h light:dark (lights off 5.00-17.00 h). Correct placement of the cannulae was assessed post-mortem. Rats were used for tests two weeks after ovariectomy (one week after cannulation). The experiments started at least 5 h into the dark period. […]

[2] = system: sexual behaviour of sexually dysfunctional male rats; test: Sexual behaviour of fluoxetine-induced sexually dysfunctional male rats; type: in vivo, rat; details: fluoxetine-pretreated rats, Compound (1) 15 mg/kg or yohimbine 2 mg/kg i.p. 1 h before test
Procedure: Sprague Dawley male rats (Charles River, UK) were kept, 4 rats per cage, in a reversed lighting regime (12:12 hours, lights off at 5.00 h), with free access to food and water. The rats were pre-selected by being presented with a receptive female at 4 days intervals, i.e. every third day (having 2 clear days between presentations) until completing 6-7 trials of baseline determination. The animals showing consistently vigorous behaviour (ejaculatory latencies <300s) were chosen for further experiments. Animals were treated for 3 consecutive days with either vehicle (water) or fluoxetine (20 mg/kg, i.p., in a 2 ml/kg dosing volume). On the fourth day, the animals treated with water received vehicle (veh+veh) and the animals treated with fluoxetine received one of the three following treatments: Compound (1) (15 mg/kg, dissolved in 50% 2-hydroxypropyl-β-cyclodextrin in saline), vehicle (cyclodextrine), or yohimbine (2 mg/kg dissolved in water). All treatments were administered i.p. in a 1 ml/kg volume, 1 h before tests.
For all the sexual behaviour tests, the males were placed in an observation arena (50-60 cm diameter), starting 5 hours into the dark cycle and observed under red illumination. Three to 4 minutes after placing the male in the arena, a receptive female (ovariectomised, bearing a 7 mm Silastic implant of oestradiol benzoate) was introduced to the arena and the following parameters noted: Mount Latency: time (in seconds) taken between introduction of female and first mount. A maximum time of 15 minutes (900 seconds) was allowed, and the test terminated if no mounts were recorded within that time (FIG. 16), Ejaculation Latency: time (in seconds) taken from first intromission to ejaculation. A maximum time of 30 minutes (1800 seconds) was given, and the test terminated if ejaculation was not achieved in that time (FIG. 17), Percentage of males achieving ejaculation within 30 minutes was calculated (FIG. 18).
A one-way ANOVA followed by Dunnett's t test was used to compare the fluoxetine+vehicle group and other groups for mount and ejaculatory latencies. Percentage of animals ejaculating was analysed using a Chi-square test followed by Fisher's test. (*: P<0.05, **: P<0.01, ***: P<0.001; n=15-19).

SMILES: COc1ccc(C2(CNC(=O)[C@](C)(Cc3c[nH]c4ccccc34)NC(=O)Nc3ccc([N+](=O)[O-])cc3)CCCCC2)nc1 [Compound (1), (S) 3-(1H-Indol-3-yl)-N-[1-(5-methoxy-pyridin-2-yl)-cyclohexyl-methyl]-2-methyl-2-[3-(4-nitro-phenyl)-ureido]-propionamide]
- body weight, general behaviour, tolerability on repeated administration ([1]; 15 mg/kg i.p. daily for 15 days, female rats): no changes in body weight or general behaviour; also recorded: well tolerated
- proceptivity on day 1 vs vehicle ([1]; Compound (1) 15 mg/kg i.p. 1 h before test, progesterone 0.5 mg s.c. 4 h before test (FIG. 3)): stimulatory effect on proceptivity
- percentage of time spent investigating the male stimulus ([1]; i.c.v., 3-30 μg/rat, 10 min before test (FIG. 4)): dose-dependently (3-30 μg/rat) increased the percentage of time spent investigating the male stimulus
- percentage of time spent investigating the male stimulus ([1]; i.p., 3 and 10 mg/kg, 1 h before test, vs vehicle (FIG. 1)): dose-dependently (3 mg/kg-10 mg/kg) increased the percentage of time spent investigating the male stimulus
- Mount Latency ([2]; vs fluoxetine+vehicle (FIG. 16)): significantly decreased
- Ejaculation Latency ([2]; vs fluoxetine+vehicle (FIG. 17)): significantly decreased
- percentage of animals ejaculating ([2]; vs fluoxetine+vehicle (FIG. 18)): increasing the percentage of animals ejaculating
